# Data taken from patent US12268683B2, “Compounds and methods for synergistic activation of M channels” (THE REGENTS OF THE UNIVERSITY OF CALIFORNIA, priority 2018, dated 2025).
# Entries after “also recorded” stand apart in the source; their conditions may differ.
# Experiments:
# KCNQ2/3 [1] = molecular target: T1, KCNQ2/3 (Homo sapiens, UniProt O43525+O43526); experiment: TEVC of heteromeric KCNQ2/3 channels expressed in Xenopus laevis oocytes; assay type: cell-based; conditions: for effect on voltage dependence of KCNQ2/3 activation, screen of M. oppositifolius leaf compounds: 100 μM, MTX and palmitic acid 30 μM
# Text: (§1) cRNA transcripts encoding human KCNA1, KCNQ1, KCNQ2, KCNQ3, KCNQ4, or KCNQ5 were generated by in vitro transcription using the T7 polymerase message machine kit (Thermo Fisher Scientific), after vector linearization, from cDNA sub-cloned into plasmids incorporating X. laevis β-globin 5′ and 3′ UTRs flanking the coding region to enhance translation and cRNA stability. cRNA was quantified by spectrophotometry. Mutant cDNAs were generated by site-directed mutagenesis using a QuikChange kit according to manufacturer's protocol (Stratagene, San Diego, Calif.) and corresponding cRNAs prepared as above. Defolliculated stage V and VI X. laevis oocytes (Ecocyte Bioscience, Austin, Tex.) were injected with Kv channel a subunit cRNAs (10 ng total per oocyte). Oocytes were incubated at 16° C. in Barth's saline solution (Ecocyte) containing penicillin and streptomycin, with daily washing, for 3-5 days prior to two-electrode voltage-clamp (TEVC) recording.
# TEVC recording was performed at room temperature with an OC-725C amplifier (Warner Instruments, Hamden, Conn.) and pClamp10.2 software (Molecular Devices, Sunnyvale, Calif.) 3-5 days after cRNA injection as described in the section above. Oocytes were placed in a small-volume oocyte bath (Warner) and viewed with a dissection microscope. Chemicals were sourced from Sigma. Bath solution was (in mM): 96 NaCl, 4 KCl, 1 MgCl2, 1 CaCl2. 10 HEPES (pH 7.6). […] MTX (DMSO), sorbic acid (ethanol), and glutaconic acid (molecular grade H2O) were stored at −20° C. as 1 M stocks. Oleamide was stored as a 1 mM stock in ethanol at 4° C. Palmitic acid was conjugated with bovine serum albumin as a 1 mM stock and stored at −20° C. All compounds were diluted to working concentrations each experimental day. All compounds were introduced to the recording bath via gravity perfusion at a constant flow of 1 ml/min for 3 min prior to recording. Pipettes were of 1-2 MΩ resistance when filled with 3 M KCl. Currents were recorded in response to pulses between −80 and +40 mV at 20 mV intervals, or a single pulse to +40 mV, from a holding potential of −80 mV, to yield current-voltage relationships, current magnitude, and for quantifying activation rate. TEVC data analysis was performed with Clampfit10.2 (Molecular Devices) and Graphpad Prism software (GraphPad, San Diego, Calif., USA); values are stated as mean±SEM. Normalized tail currents were plotted versus prepulse voltage and fitted with a single Boltzmann function: […]
# (§2) cRNA transcripts encoding human KCNQ2, KCNQ3, KCNQ4, KCNQ5 (Kv7.2-Kv7.5) were generated by in vitro transcription using the T7 polymerase mMessage mMachine kit (Thermo Fisher Scientific), after vector linearization, from cDNA sub-cloned into plasmids incorporating Xenopus laevis β-globin 5′ and 3′ UTRs flanking the coding region to enhance translation and cRNA stability. cRNA was quantified by spectrophotometry. Mutant KCNQ2 and KCNQ3 cDNAs were generated with site-directed mutagenesis using a QuikChange kit according to the manufacturer's protocol (Stratagene, San Diego, Calif.) and corresponding cRNAs prepared as above.
# KCNQ2-W236L/KCNQ3-W265L = KCNQ2-W236L/KCNQ3-W265L (Homo sapiens, UniProt O43525+O43526, W236L/W265L); experiment: TEVC of double-mutant WL/WL KCNQ2/3 channels; assay type: cell-based
# Text: as §1
# TEVC recording was performed at room temperature with an OC-725C amplifier (Warner Instruments, Hamden, Conn.) and pClamp10.2 software (Molecular Devices, Sunnyvale, Calif.) 3-5 days after cRNA injection as described in the section above. Oocytes were placed in a small-volume oocyte bath (Warner) and viewed with a dissection microscope. Chemicals were sourced from Sigma. Bath solution was (in mM): 96 NaCl, 4 KCl, 1 MgCl2, 1 CaCl2. 10 HEPES (pH 7.6). […] Currents were recorded in response to pulses between −80 and +40 mV at 20 mV intervals, or a single pulse to +40 mV, from a holding potential of −80 mV, to yield current-voltage relationships, current magnitude, and for quantifying activation rate. […]
# as §2, with “Mutant KCNQ2 and KCNQ3 cDNAs were generated with site-directed mutagenesis using a QuikChange kit according to the manufacturer's protocol (Stratagene, San Diego, Calif.) and corresponding cRNAs prepared as above.” left out
# KCNQ4 = KCNQ4 (Homo sapiens, UniProt P56696); experiment: TEVC of homomeric KCNQ4 expressed in Xenopus oocytes; assay type: cell-based
# Text: as §1
# (§3) TEVC recording was performed at room temperature with an OC-725C amplifier (Warner Instruments, Hamden, Conn.) and pClamp10.2 software (Molecular Devices, Sunnyvale, Calif.) 3-5 days after cRNA injection as described in the section above. Oocytes were placed in a small-volume oocyte bath (Warner) and viewed with a dissection microscope. Chemicals were sourced from Sigma. Bath solution was (in mM): 96 NaCl, 4 KCl, 1 MgCl2, 1 CaCl2. 10 HEPES (pH 7.6). […] MTX (DMSO), sorbic acid (ethanol), and glutaconic acid (molecular grade H2O) were stored at −20° C. as 1 M stocks. Oleamide was stored as a 1 mM stock in ethanol at 4° C. Palmitic acid was conjugated with bovine serum albumin as a 1 mM stock and stored at −20° C. All compounds were diluted to working concentrations each experimental day. All compounds were introduced to the recording bath via gravity perfusion at a constant flow of 1 ml/min for 3 min prior to recording. Pipettes were of 1-2 MΩ resistance when filled with 3 M KCl. Currents were recorded in response to pulses between −80 and +40 mV at 20 mV intervals, or a single pulse to +40 mV, from a holding potential of −80 mV, to yield current-voltage relationships, current magnitude, and for quantifying activation rate. TEVC data analysis was performed with Clampfit10.2 (Molecular Devices) and Graphpad Prism software (GraphPad, San Diego, Calif., USA); values are stated as mean±SEM. Normalized tail currents were plotted versus prepulse voltage and fitted with a single Boltzmann function:
# (§4) cRNA transcripts encoding human KCNQ2, KCNQ3, KCNQ4, KCNQ5 (Kv7.2-Kv7.5) were generated by in vitro transcription using the T7 polymerase mMessage mMachine kit (Thermo Fisher Scientific), after vector linearization, from cDNA sub-cloned into plasmids incorporating Xenopus laevis β-globin 5′ and 3′ UTRs flanking the coding region to enhance translation and cRNA stability. cRNA was quantified by spectrophotometry. Mutant KCNQ2 and KCNQ3 cDNAs were generated with site-directed mutagenesis using a QuikChange kit according to the manufacturer's protocol (Stratagene, San Diego, Calif.) and corresponding cRNAs prepared as above. Defolliculated stage V and VI Xenopus laevis oocytes (Ecocyte Bioscience, Austin, Tex.) were injected with KCNQ channel α subunit cRNAs (5-10 ng). The oocytes were incubated at 16° C. in Barth's saline solution (Ecocyte) containing penicillin and streptomycin, with daily washing, for 2-5 days prior to two-electrode voltage-clamp (TEVC) recording.
# (§5) TEVC recording was performed at room temperature using a OC-725C amplifier (Warner Instruments, Hamden, Conn.) and pClamp8 software (Molecular Devices, Sunnyvale, Calif.) 2-5 days after cRNA injection as described in the section above. The oocytes were placed in a small-volume oocyte bath (Warner) and viewed with a dissection microscope. Unless otherwise stated, chemicals were sourced from Sigma. Bath solution was (in mM): 96 NaCl, 4 KCl, 1 MgCl2, 1 CaCl2, 10 HEPES (pH 7.6).
# KCNQ3* (KCNQ3-A315T) = KCNQ3* (KCNQ3-A315T) (Homo sapiens, UniProt O43525, A315T); experiment: TEVC of homomeric KCNQ3* expressed in Xenopus oocytes; assay type: cell-based
# Text: as §1, §3, §4, §5
# KCNQ1 = KCNQ1 (Homo sapiens, UniProt P51787); experiment: TEVC of homomeric KCNQ1 expressed in Xenopus oocytes; assay type: cell-based; conditions: Example 4; read-out: EC50, ΔV0.5act of KCNQ1
# Procedure: Oocytes were placed in a small-volume oocyte bath (Warner) and viewed with a dissection microscope. Chemicals were sourced from Sigma. Bath solution was (in mM): 96 NaCl, 4 KCl, 1 MgCl2, 1 CaCl2. 10 HEPES (pH 7.6). […] MTX (DMSO), sorbic acid (ethanol), and glutaconic acid (molecular grade H2O) were stored at −20° C. as 1 M stocks. Oleamide was stored as a 1 mM stock in ethanol at 4° C. Palmitic acid was conjugated with bovine serum albumin as a 1 mM stock and stored at −20° C. All compounds were diluted to working concentrations each experimental day. All compounds were introduced to the recording bath via gravity perfusion at a constant flow of 1 ml/min for 3 min prior to recording. Pipettes were of 1-2 MΩ resistance when filled with 3 M KCl. Currents were recorded in response to pulses between −80 and +40 mV at 20 mV intervals, or a single pulse to +40 mV, from a holding potential of −80 mV, to yield current-voltage relationships, current magnitude, and for quantifying activation rate. […]
# KCNQ5 = KCNQ5 (Homo sapiens, UniProt Q9NR82); experiment: TEVC of homomeric KCNQ5 expressed in Xenopus oocytes; assay type: cell-based
# Text: as §1, §3, §4, §5
# KCNQ2 = KCNQ2 (Homo sapiens, UniProt O43526); experiment: TEVC of homomeric KCNQ2 expressed in Xenopus oocytes; assay type: cell-based; conditions: Example 4; read-out: EC50, ΔV0.5act of KCNQ2
# Text: as §1, §3, §4, §5
# KCNQ2/3 [2] = molecular target: T1, KCNQ2/3; conditions: cited from earlier work
# [3] = test system: pentylene tetrazole-induced seizures; experiment: PTZ chemoconvulsant assay; assay type: in vivo, mouse
# Text: We compared anticonvulsant activities of test compounds in male C57BL/6 mice (Charles River) aged 2-3 months. Mice were housed and used according to the recommendations in the Guide for the Care and Use of Laboratory Animals of the National Institutes of Health (NIH Publication, 8th edition, 2011). The study protocol was approved by the Institutional Animal Care and Use Committee of University of California, Irvine, which confirmed that all relevant ethical regulations were adhered to. Chemicals were sourced from Sigma (St. Louis, Mo., USA). A pentylene tetrazole (PTZ) chemoconvulsant assay was used-. […] Following the PTZ injection, mice were caged individually and an observer (GWA) blinded to the drug used recorded, over 20 min, clonic and tonic seizure incidence, and seizure-related mortality.
# We quantified the anticonvulsant activities of (E)-2-dodecenal and tridecanal in male C57BL/6 mice (Charles River, Wilmington, Mass.) aged 2-3 months. The mice were housed and used according to the recommendations in the Guide for the Care and Use of Laboratory Animals of the National Institutes of Health (NIH Publication, 8th edition, 2011). The study protocol was approved by the Institutional Animal Care and Use Committee of University of California, Irvine. The chemicals were sourced from Sigma (St. Louis, Mo., USA). We used a pentylene tetrazole (PTZ) chemoconvulsant assay as we previously described (30). We injected the mice intraperitoneally with (E)-2-dodecenal (2 or 20 mgkg^−1) (with or without 2.5 mgkg^−1 XE991) or tridecanal (20 mgkg^−1) solubilized in PBS, or vehicle control (PBS), and then 30 minutes later we injected mice intraperitoneally with 80 mgkg-PTZ. Following the PTZ injection, the mice were caged individually and an observer (GWA) blinded to the experimental condition timed the latency to first seizure.
# We compared anticonvulsant activities of 3FMSG in male C57BL/6 mice (Charles River) aged 2-3 months. Mice were housed and used according to the recommendations in the Guide for the Care and Use of Laboratory Animals of the National Institutes of Health (NIH Publication, 8th edition, 2011). The study protocol was approved by the Institutional Animal Care and Use Committee of University of California, Irvine, which confirmed that all relevant ethical regulations were adhered to. Chemicals were sourced from Sigma (St. Louis, Mo., USA). We used a pentylene tetrazole (PTZ) chemoconvulsant assay as we previously described^27. Mice were injected intraperitoneally with 3FMSG (5 mg kg^−1) or vehicle control (PBS) and then 30 minutes later injected intraperitoneally with 80 mg kg^−1 PTZ. Following the PTZ injection, mice were caged individually and an observer (GWA) blinded to the drug used recorded seizure activity over 20 minutes.
smiles,measurement,setting,value
Oc1ccccc1S [2-mercaptophenol],concentration from which KCNQ2/3 is inhibited,KCNQ2/3 [1],~100 µM
same,effect of co-applied compound (100 μM) on KCNQ2/3 activation by MTX (30 μM) or IVA (500 μM),KCNQ2/3 [1],did not alter
same,effect on KCNQ2/3 activity (in words),KCNQ2/3 [1],inhibits; also recorded: inhibitory at higher doses
same,"effect on voltage dependence of KCNQ2/3 activation, screen of M. oppositifolius leaf compounds",KCNQ2/3 [1],positive-shifted
same,effect on WL/WL KCNQ2/3 (in words),KCNQ2-W236L/KCNQ3-W265L,insensitive
"NC(C(=O)O)c1ccc(F)cc1 (stereo not drawn) [4FPG, 4-(fluorophenyl)glycine]",EC50,"KCNQ4; Example 4, read-out: EC50, ΔV0.5act of KCNQ4",49 ± 12 nM
same,effect on KCNQ3* (in words),KCNQ3* (KCNQ3-A315T),no effects
same,EC50,KCNQ1,90 ± 20 nM
same,effect on KCNQ5 (in words),KCNQ5,no effects
same,EC50,KCNQ2,69 ± 31 nM
same,EC50,"KCNQ2/3 [1]; Example 4, read-out: EC50, shift in voltage dependence of KCNQ2/3 activation (ΔV0.5act)",61 ± 42 nM
"NCCCC(=O)O [GABA, γ-aminobutyric acid, reference compound]",effect on KCNQ4 (in words),KCNQ4,unable to open
"NCC(O)CC(=O)O (stereo not drawn) [GABOB, γ-Amino-β-hydroxybutyric acid]",effect of co-applied compound (100 μM) on KCNQ2/3 activation by MTX (30 μM) or IVA (500 μM),KCNQ2/3 [1],only partially diminishes; also recorded: highly effective at competing out
O=C(Nc1ccc(Cl)nc1)c1ccc(F)c(F)c1 [ICA-27243],potency at opening KCNQ2/3 versus KCNQ4,KCNQ2/3 [2],> 20 fold
O=C(Nc1cnc(Cl)nc1)c1ccc(F)c(F)c1 [ICA-069673],selectivity KCNQ2/3 versus KCNQ3/5 activation,KCNQ2/3 [2],20 fold
O=C1c2ccccc2C(Cc2ccncc2)(Cc2ccncc2)c2ccccc21 [XE991],inhibition of activator-augmented KCNQ2/3 current,KCNQ2/3 [1]; after wash-in of MTX or gabapentin,rapidly inhibited; also recorded: completely inhibited
same,latency to first PTZ-induced seizure,[3]; XE991 2.5 mgkg−1 with (E)-2-dodecenal 20 mgkg−1,eliminated the protective effect
O=C(O)C=CCC(=O)O [glutaconic acid],"effect on voltage dependence of KCNQ2/3 activation, screen of M. oppositifolius leaf compounds",KCNQ2/3 [1],negative-shifted
CCCCCCCC/C=C\CCCCCCCC(N)=O [oleamide],effect on KCNQ2/3 activity (in words),KCNQ2/3 [1],slightly increased KCNQ2/3 currents at higher voltages
CCCCCCCCCCCCCCCC(=O)O [palmitic acid],"effect on voltage dependence of KCNQ2/3 activation, screen of M. oppositifolius leaf compounds",KCNQ2/3 [1],negative-shifted
CC(C)C[C@H](CN)CC(=O)O [pregabalin],concentration from which KCNQ2/3 is inhibited,KCNQ2/3 [1],≥ 10 µM
same,effect on KCNQ2/3 activity (in words),KCNQ2/3 [1],does not activate; also recorded: no augmenting effect
same,effect on KCNQ2/3 gating kinetics,KCNQ2/3 [1],no effects
same,shift of membrane potential (EM) of KCNQ2/3-expressing oocytes,KCNQ2/3 [1]; unclamped oocytes,failed to shift
"CCCCCCCCCCCCC=O [tridecanal, reference compound]",effect on KCNQ2/3 activity (in words),KCNQ2/3 [1],KCNQ2/3-inactive
same,latency to first PTZ-induced seizure,[3]; 20 mgkg−1 i.p.,no effect
CCCCC(=O)O [valeric acid],KCNQ2/3 activation (previously found),KCNQ2/3 [2],inactive
